pIC50: −log10 of the molar value. The source made the active and inactive calls. No cut-off for these calls is given here. Where only a bound is given, the exact number is not on record here.

Common to all, as to type: functional, cell-based
For experiment [1], the system named is JIMT-1. Briefly: Antiproliferative activity against human JIMT-1 cells after 72 hrs by SRB assay. The settings on record: JIMT-1, 72 h. (In general: Sulforhodamine B stains cellular protein and so reports cell mass.)
Experiment [2] deals with JIMT-1. Briefly: Induction of DNA damage in human JIMT-1 cells at high concentration assessed as change in p-H2AX levels and measured by Western blot analysis. In general terms: In western blotting, separated proteins are transferred to a membrane and probed.
The subject of experiment [3] is JIMT-1. Briefly: Induction of mitotic arrest in human JIMT-1 cells at high concentration assessed as change in p-histone H3 levels and measured by Western blot analysis.
The subject of another experiment is RT-4. Nature of the experiment: Antiproliferative activity against human RT-4 cells after 3 days by SRB assay. The settings on record: RT-4, 72 h.
Another experiment has as its system MCF-12A. Briefly: Antiproliferative activity against human MCF-12A cells.
For experiment [4], the system named is JIMT-1. Briefly: Induction of apoptosis in human JIMT-1 cells at high concentration assessed as change in cleaved caspase-3 levels and measured by Western blot analysis.
Experiment [5] concerns JIMT-1. Briefly: Induction of apoptosis in human JIMT-1 cells at high concentration assessed as change in cleaved PARP levels and measured by Western blot analysis.
The subject of a further experiment is RT-112. Briefly: Antiproliferative activity against human RT-112 cells after 3 days by SRB assay. The settings on record: RT-112, 72 h.

For `COc1ccc(-c2cc(N(C)c3ccnc(N4CCOCC4)n3)on2)cc1`, in the experiment with JIMT-1 [1], the pIC50 (usually −log10 of the IC50, conventionally taken in molar units) is 6.80.

Take `COc1ccc(-c2cc(Nc3ccnc(N4CCS(=O)(=O)CC4)n3)on2)cc1`: the pIC50 with JIMT-1 [1] is less than 5.00.

Molecule `COc1ccc(-c2cc(Nc3ccnc(N4CCC(F)(F)CC4)n3)on2)cc1` had a negative logarithm of the IC50 (pIC50) in the experiment with JIMT-1 [1] of 6.43.

`COc1ccc(-c2cc(Nc3ccnc(N4CCOCC4)n3)on2)cc1Cl` had a pIC50 in the experiment on JIMT-1 [1] of 6.32.

The molecule `COc1ccc(-c2cc(Nc3ccnc(N4C5CCC4COC5)n3)on2)cc1F` showed a pIC50 in the experiment with JIMT-1 [1] of 7.28.

As for `COc1ccc(-c2cc(Nc3nc(N4CCC(F)CC4)ncc3F)on2)cc1`, the pIC50 with JIMT-1 [1] was 6.27.

As for `COc1ccc(-c2cc(Nc3ccnc(N4CCSCC4)n3)on2)cc1`, the pIC50 in the experiment on JIMT-1 [1] is 6.95.

`CC(F)(F)c1ccc(-c2cc(Nc3ccnc(N4CCOCC4)n3)on2)cc1` had a pIC50 in the experiment with JIMT-1 [1] of less than 5.00.

Take `CCOc1ccc(-c2cc(Nc3ccnc(N4CCOCC4)n3)on2)cc1`: in the experiment on JIMT-1 [1], the pIC50 was 6.09.

Regarding `COc1ccc(-c2cc(Nc3ccnc(N4CCCC4)n3)on2)cc1`, the pIC50 in the experiment with JIMT-1 [1] is 6.98.

Turning to `COc1ccc(-c2cc(Nc3ccnc(N4CCN(CCO)CC4)n3)on2)cc1`, the pIC50 in the experiment with JIMT-1 [1] is less than 5.00.

Regarding `COc1ccc(-c2cc(Nc3ccnc(N4CCC(F)CC4)n3)on2)cc1`, in the experiment with JIMT-1 [1], the pIC50 was 6.89.

In the case of `CN(C)c1ccc(-c2cc(Nc3ccnc(N4CCC(F)CC4)n3)on2)cc1`, in the experiment with JIMT-1 [1], the pIC50 is 6.80.

`COc1ccc(-c2cc(Nc3ccnc(N4CCOCC4)n3)on2)cc1OC`: the pIC50 in the experiment on JIMT-1 [1] was 6.14.

In turn, `CN(C)c1ccc(-c2cc(Nc3ccnc(N4CCOCC4)n3)on2)cc1` had a pIC50 in the experiment on JIMT-1 [1] of 6.92.

Turning to `COc1ccc(-c2cc(Nc3ccnc(N4CCC(C(=O)O)CC4)n3)on2)cc1`, the pIC50 in the experiment with JIMT-1 [1] is less than 5.00.

The molecule `COc1ccc(-c2cc(Nc3ccnc(N4CC5CCC(C4)O5)n3)on2)cc1` showed a pIC50 with JIMT-1 [1] of 5.51.

With `Cc1ccc(-c2cc(Nc3ccnc(N4CCOCC4)n3)on2)cc1`, the pIC50 with JIMT-1 [1] is 6.19.

Consider `CCN(Cc1ccncc1)Cc1c(O)ccc2c(-c3cc4ccccc4oc3=O)cc(=O)oc12`, for which the result in the experiment with JIMT-1 [2], in the experiment with JIMT-1 [3], with JIMT-1 [4] and with JIMT-1 [5] was Active. Further, the pIC50 in the experiment on RT-4 is 5.28; with MCF-12A, less than 5.00; in the experiment with RT-112, 5.92.

With `FC(F)Oc1ccc(-c2cc(Nc3ccnc(N4CCOCC4)n3)on2)cc1`, the pIC50 in the experiment on JIMT-1 [1] is 5.37.

On to `COc1ccc(-c2cc(Nc3ccnc(N4CCOCC4)n3)on2)cc1F`, for which the pIC50 with JIMT-1 [1] was 7.89.

The molecule `COc1ccc(-c2cc(Nc3ccnc(N4C5CCC4COC5)n3)on2)cc1` showed a pIC50 with JIMT-1 [1] of 6.80.

On to `c1cc(Nc2cc(-c3ccc4c(c3)OCO4)no2)nc(N2CCOCC2)n1`, for which the negative-log IC50 (pIC50) in the experiment with JIMT-1 [1] is 6.06. This pIC50 lies 0.74 log units lower than the previous one.

In the experiment on JIMT-1 [1], `CSc1ccc(-c2cc(Nc3ccnc(N4CCOCC4)n3)on2)cc1` showed a pIC50 of 7.52. Against the preceding molecule, the pIC50 is 1.46 log units higher.

As to `CC(C)CNc1ccnc(NCc2csc(-c3ccccc3)n2)n1`, the result in the experiment on JIMT-1 [2], in the experiment with JIMT-1 [3], in the experiment on JIMT-1 [4] and in the experiment on JIMT-1 [5] was Active. The pIC50 with RT-4 is 5.15; in the experiment with MCF-12A, less than 5.00; in the experiment on RT-112 it was 5.06.

In turn, `COc1ccccc1-c1cc(Nc2ccnc(N3CCOCC3)n2)on1` had a pIC50 in the experiment on JIMT-1 [1] of 5.08.

In the experiment on JIMT-1 [1], `COc1ccc(-c2cc(Nc3ccnc(N4CCC(NN5CCOCC5)CC4)n3)on2)cc1` had a negative-log IC50 (pIC50) of 6.10.

For the molecule `COc1ccc(-c2cc(Nc3ccnc(N4CCCCC4)n3)on2)cc1`, in the experiment with JIMT-1 [1], the pIC50 is 6.94.

`c1ccc(COc2ccc(-c3cc(Nc4ccnc(N5CCOCC5)n4)on3)cc2)cc1` showed a pIC50 in the experiment on JIMT-1 [1] of less than 5.00.

`CC(C)c1ccc(-c2cc(Nc3ccnc(N4CCOCC4)n3)on2)cc1` gave a pIC50 in the experiment with JIMT-1 [1] of 5.44.

In the experiment on JIMT-1 [1], `COc1ccc(-c2cc(Nc3ccnc(N4CCOCC4)n3)on2)cn1` showed a pIC50 of 5.14.

With `COc1ccc(-c2cc(Nc3ccnc(N4C[C@@H]5C[C@H]4CO5)n3)on2)cc1`, the pIC50 in the experiment with JIMT-1 [1] was 5.69.

Consider `CCCOc1ccc(-c2cc(Nc3ccnc(N4CCOCC4)n3)on2)cc1`, for which the pIC50 in the experiment with JIMT-1 [1] is less than 5.00.

As for `COc1ccc(-c2cc(Nc3ccnc(N4C[C@H]5C[C@@H]4CO5)n3)on2)cc1`, the pIC50 in the experiment on JIMT-1 [1] was 6.32.

The molecule `COc1ccc(-c2cc(Nc3ccnc(N4C[C@@H](C)O[C@@H](C)C4)n3)on2)cc1` gave a pIC50 in the experiment with JIMT-1 [1] of 6.64.

Take `FC(F)(F)c1ccc(-c2cc(Nc3ccnc(N4CCOCC4)n3)on2)cc1`: the pIC50 in the experiment on JIMT-1 [1] was less than 5.00.

For the molecule `COc1ccc(-c2cc(Nc3ccnc(N4CCC(C)CC4)n3)on2)cc1`, the negative-log IC50 (pIC50) in the experiment with JIMT-1 [1] is 6.69.

The molecule `FC(F)(F)Oc1ccc(-c2cc(Nc3ccnc(N4CCOCC4)n3)on2)cc1` showed a pIC50 with JIMT-1 [1] of less than 5.00.

In the case of `COc1ccc(-c2cc(Nc3ccnc(N4CCC(F)CC4)n3)on2)cc1F`, the pIC50 in the experiment with JIMT-1 [1] was 6.84.

In turn, `c1ccc(-c2cc(Nc3ccnc(N4CCOCC4)n3)on2)cc1` had a pIC50 with JIMT-1 [1] of less than 5.00.

`COc1ccc(-c2cc(Nc3ccnc(N4CCNCC4)n3)on2)cc1` showed a pIC50 in the experiment with JIMT-1 [1] of less than 5.00.

On to `Fc1ccc(-c2cc(Nc3ccnc(N4CCOCC4)n3)on2)cc1`, for which, in the experiment on JIMT-1 [1], the pIC50 was less than 5.00.

In the case of `COc1ccc(-c2cc(Nc3ccnc(N4CCN(C)CC4)n3)on2)cc1`, in the experiment with JIMT-1 [1], the pIC50 was 5.81.

In turn, `COc1ccc(-c2cc(Nc3ccnc(N4CCC(CCO)CC4)n3)on2)cc1` gave a pIC50 with JIMT-1 [1] of 5.40.

In the experiment on JIMT-1 [1], `COc1ccc(-c2cc(Nc3ccnc(N4CCCC4)n3)on2)cc1F` had a pIC50 of 7.31.

For `Clc1ccc(-c2cc(Nc3ccnc(N4CCOCC4)n3)on2)cc1`, the pIC50 in the experiment with JIMT-1 [1] was less than 5.00.

Take `CCc1ccc(-c2cc(Nc3ccnc(N4CCOCC4)n3)on2)cc1`: the pIC50 with JIMT-1 [1] is 6.59.

The molecule `Oc1ccc(-c2cc(Nc3ccnc(N4CCOCC4)n3)on2)cc1` showed a pIC50 in the experiment with JIMT-1 [1] of less than 5.00.

On to `COc1ccc(-c2cc(Nc3cc(C)nc(N4CCC(F)CC4)n3)on2)cc1`, for which the pIC50 in the experiment on JIMT-1 [1] was 6.00.

The molecule `COc1cccc(-c2cc(Nc3ccnc(N4CCOCC4)n3)on2)c1` had a negative logarithm of the IC50 (pIC50) in the experiment with JIMT-1 [1] of 5.46.

For the molecule `COc1ccc(-c2cc(Nc3ccnc(N4CCC(C(F)(F)F)CC4)n3)on2)cc1`, the pIC50 in the experiment on JIMT-1 [1] is 7.25. This pIC50 is 1.79 log units higher than that of the molecule before.

`CCOC(=O)C1CCN(c2nccc(Nc3cc(-c4ccc(OC)cc4)no3)n2)CC1` gave a pIC50 with JIMT-1 [1] of less than 5.00.

The values above are taken from ChEMBL document CHEMBL5052853, “Isoxazole derivatives targeting tacc3 as anticancer agents” (2021).
